Reference: patent US12016943B2, “Antiperspirant or deodorant composition” (Firmenich SA, priority 2016, dated 2024)

Assays:
[1] = Assessment of coloration of deodorant or antiperspirant formulations containing perfuming ingredients with or without Haloscent D; assay type: physicochemical; design: key to Coloration of antiperspirant stick: CO: color; COYE: yelow color; VSCOYE: very slight yellow color; SCOYE: slight yellow color; VCOYE: very yellow color; NC: no color; DECO: decoloration; CL: cloud; VCL: very cloud; WH: white; VCOBR: very brown color; COPI: ping color; details: perfuming ingredient 0.5 wt %; for Coloration of antiperspirant stick: after 7 days
Method: (§1) Preparation of an Antiperspirant Spray Formulation: Using a high speed stirrer, Silica (Table 1) and Quaternium-18-Hectorite (Table 1) were added to the Isopropyl miristate (Table 1) and Cyclomethicone mixture (Table 1). Once completely swollen, Aluminium Chlorohydrate (Table 1) was added portion wise under stirring until the mixture was homogeneous and without lumps. The aerosol cans were filled with 25% Suspension of the suspension and 75% of Propane/Butane (2.5 bar).
(§2) Preparation of Deodorant Spray Formulation: All the ingredients according to the sequence of the Table 2 were mixed and dissolved. Then the aerosol cans were filled, crimp and add the propellant (Aerosol filling: 40% active solution 60% Propane/Butane 2.5 bar).
(§3) Part A was prepared by sprinkling little by little the Hydroxyethylcellulose (Table 3) in the water (Table 3) whilst rapidly stirring with the turbine. Stirring was continued until the Hydroxyethylcellulose had entirely swollen and giving a limpid gel. Then, Part B (Table 3) was poured little by little in Part A whilst continuing stirring until the whole was homogeneous. Part C was added (Table 3).
(§4) Preparation of a Deodorant Stick Formulation: All the components of Part A were weighted (Table 4) and heated up to 70-75° C. Ceteareth-25 (Table 4) was added once the other Part A ingredients were mixed and heated. Once the Ceteareth-25 was dissolved, the Stearic Acid was added. Part B was prepared by dissolving the Triclosan (Table 4) in 1,2 Propylene Glycol (Table 4). Water which has evaporated was added. Slowly under mixing, Part B was poured into part A. To stock, a plastic bag into the bucket was put in to be sealed after cooling. Moulds was filled at about 70° C.
(§5) Preparation of an Antiperspirant Stick Formulation: All the components of Part A were weighted (Table 5), heated up to 70-75° C. and mixed well. Ingredient of Part B was dispersed in Part A. The mixture was mixed and putted into a tick at 65° C.
(§6) Assessment of Coloration in the Perfuming Ingredients: To set of deodorant or antiperspirant formulations of point a) to e) has been prepared. A perfuming ingredient (0.5 wt %—Table 6, 7 and 8) was added to the first set a and a perfuming ingredient (0.5 wt %—Table 6, 7 and 8) and Haloscent® D (0.5 wt %) were added to the second set. All these formulations were placed at 3° C. and 45° C. for several weeks. All formulations were evaluated in comparison with unperfumed deodorant or antiperspirant formulation. The coloration of each formulation was assessed by a minimum of 2 panelists.

[2] = as above; assay type: physicochemical; design: key: CO: color; COYE: yelow color; VSCOYE: very slight yellow color; SCOYE: slight yellow color; VCOYE: very yellow color; NC: no color; DECO: decoloration; CL: cloud; VCL: very cloud; WH: white; VCOBR: very brown color; COPI: ping color; details: perfuming ingredient 0.5 wt %, after 15 days
Method: as §1, §2, §3, §4, §5, §6

[3] = as above; assay type: physicochemical; design: key: CO: color; COYE: yellow color; SCOYE: slight yellow color; VCOYE: very yellow color; NC: no color; DECO: discoloration; CL: cloud; VCL: very cloud; WH: white; VCOBR: very brown color; COPI: ping color; details: perfuming ingredient 0.5 wt %, after 15 days; for Coloration of deodorant spray: DEO SPRAY + Haloscent D 0.5 wt %; for Coloration of deodorant stick: DEO STICK + Haloscent D 0.5 wt %
Method: as §1, §2, §3, §4, §5, §6

[4] = Sensory evaluation of spray deodorant on cotton t-shirts: perceived fragrance intensity; details: deodorant spray on t-shirt, immediately after application
Description: Test formulations comprising either fragrance formulation 1 containing the β-thio carbonyl derivative profragrance of formula (I), commercially available as HALOSCENT®-D, at the amounts indicated, or fragrance formulation 1 containing the 0-thio carbonyl derivative profragrance of formula (I), commercially available as HALOSCENT®-I were formulated as deodorant sprays.
One gram of each of the test formulation was applied to separate 2-3 year old cotton t-shirts. In parallel, control formulations, comprising fragrance formulation alone (i.e., lacking the β-thio carbonyl derivative profragrance of formula (I)) were similarly applied to separate t-shirts.
A minimum of 18 skilled panelists were asked to evaluate the intensity of the fragrance of the […], in a blind, balanced, randomized study, with a 20 second break between samples.
The panelists were asked to rank the intensity of the fragrance from 0 (not perceptible), to 10 (very strong odour). The results of the evaluation were analyzed using Analysis of Variance with Duncan's post-hoc analysis (α=0.05). The analyzed results are shown in FIG. 1, where the average for each sample at the times indicated are shown. The error bars indicate the 95% confidence level. ***=a significant difference at 99.9%; **=a significant difference at 99%; *=significant difference at 95%; NS=no significant difference.

[5] = AP Stick + Haloscent D 0.5 wt %, 3° C.
[6] = AP Stick + Haloscent D 0.5 wt %, 45° C.
[7] = AP SPRAY + Haloscent D 0.5 wt %, 3° C.
[8] = AP SPRAY + Haloscent D 0.5 wt %, 45° C.
[9] = DEO ROLL-ON + Haloscent D 0.5 wt %, 3° C.
[10] = DEO ROLL-ON + Haloscent D 0.5 wt %, 45° C.
[11] = DEO STICK + Haloscent D 0.5 wt %, 3° C.

Coloration of antiperspirant stick [1, 5]	Coloration of antiperspirant stick [1, 6]	Coloration of antiperspirant stick ([1]; AP Stick, 3° C.)	Coloration of antiperspirant stick ([1]; AP Stick, 45° C.)	Coloration of antiperspirant spray [2, 7]	Coloration of antiperspirant spray [2, 8]	Coloration of deodorant roll-on [2, 9]	Coloration of deodorant roll-on [2, 10]	Coloration of deodorant roll-on ([2]; DEO ROLL-ON, 3° C.)	Coloration of deodorant roll-on ([2]; DEO ROLL-ON, 45° C.)	Coloration of deodorant stick [2, 11]	Coloration of deodorant stick ([2]; DEO STICK, 3° C.)	Coloration of deodorant stick ([2]; DEO STICK, 45° C.)	Coloration of deodorant spray ([3]; 45° C.)	Molecule	also measured
DECO	SCOYE	DECO	VSCOYE	SCOYE	SCOYE	WH	VCL	VCL	VCL	NC	NC	NC	DECO	1-OXA-12-CYCLOHEXADECEN-2-ONE (A) + 1-OXA-13-CYCLOHEXADECEN-2-ONE [HABANOLIDE]	Coloration of antiperspirant spray ([2]; AP SPRAY, 3° C.): NC; Coloration of antiperspirant spray ([2]; AP SPRAY, 45° C.): NC; Coloration of deodorant spray ([2]; DEO SPRAY, 3° C.): NC; Coloration of deodorant spray ([2]; DEO SPRAY, 45° C.): NC; Coloration of deodorant stick ([2]; DEO STICK + Haloscent D 0.5 wt %, 45° C.): NC; Coloration of deodorant spray ([3]; 3° C.): DECO
VSCO	NC	DECO	NC	–	–	NC	NC	NC	NC	–	NC	NC	–	CC(C)=CCC/C(C)=C/CO [(E)-3,7-DIMETHYL-2,6-OCTADIEN-1-OL]	Coloration of deodorant stick ([3]; 3° C.): COYE; Coloration of deodorant stick ([3]; 45° C.): COYE
–	–	–	–	–	–	–	–	–	–	–	–	–	–	CCCCCCCCCCCCSC(CC(C)=O)C1C(C)=CCCC1(C)C (centres unmarked) [HALOSCENT®-I, 4-(dodecylthio)-4-(2,6,6-trimethylcyclohex-2-en-1-yl)butan-2-one]	Perceived intensity of fragrance versus control formulation (FIG. 1) ([4]; fragrance formulation 1 containing 3% HALOSCENT-I): significant increases
DECO PI	DECO PI	–	–	NC	SCOYE	NC	NC	–	–	NC	–	–	COYE	CCCCCCCCCCCCSC(C)CC(=O)C1C(C)C=CCC1(C)C (centres unmarked) [Haloscent ® D, 3-(dodecylthio)-1-(2,6,6-trimethylcyclohex-3-en-1-yl)butan-1-one]	Perceived intensity of fragrance versus control formulation (FIG. 1) ([4]; fragrance formulation 1 containing 1.2% HALOSCENT-D): significant increases; Coloration of deodorant stick ([1]; DEO STICK + Haloscent D 0.5 wt %, 45° C., after 15 days): COYE CL; Coloration of deodorant spray ([2]; DEO SPRAY + Haloscent D 0.5 wt %, 3° C.): SCOYE
